Measurements as given in patent US12630829B2, “Gene encoding cytochrome P450 and use thereof” (KUMIAI CHEMICAL INDUSTRY CO., LTD., priority 2020, dated 2026).
Counter-ions that a name gives are not always drawn.

Columns and labels:
[1] = tested on: Arabidopsis thaliana having AK454412 introduced thereinto and wild type; test: Test of sensitivity to various drugs, AK454412-introduced versus wild type Arabidopsis thaliana; type: in vivo; details: evaluated subjectively based on drug concentration exhibiting the effect; 0, 0.1, 1, 10, 100, 1,000 nM
Protocol: Therefore, similar tests were performed on compounds having various acting properties described in HRAC including these sulfonylurea-based ALS inhibitors to search for a compound that can be metabolically degraded by AK454412. Specifically, 61 compounds arbitrarily selected from all of the 25 classifications of HRAC 2020 were subjected to sensitivity examination in Arabidopsis thaliana having AK454412 introduced thereinto and wild type. The sensitivity to each of the drugs was evaluated subjectively with respect to every acting symptom.
As a result, compounds found to have a difference in the sensitivity between the wild type and the recombinant Arabidopsis thaliana are illustrated in FIGS. 10-1 to 10-4. It is noted that concentrations of the drug in respective wells of a plate shown in each photograph in FIGS. 10-1 to 10-4 are 0, 0.1, and 1 nM in the stated order in the rightward direction in an upper portion, and 10, 100, and 1,000 nM in the stated order in the rightward direction in a lower portion. Besides, the compound found to have a sensitivity difference are listed below.

[2] = tested on: CYP81A6; details: reported so far; cited from earlier work
[3] = main metabolite of fenquinotrione in a wheat body; cited from earlier work

Compound	approximate sensitivity difference between wild type and recombinant Arabidopsis thaliana [1]	metabolic reactivity of CYP81A6 against the compound [2]	herbicidal activity [3]
COc1cc(OC)nc(Oc2cccc(Oc3nc(OC)cc(OC)n3)c2C(=O)[O-])n1.[Na+] [Bispyribac-sodium salt, bispyribac-sodium salt]	< 5	–	–
COC(=O)NS(=O)(=O)c1ccc(N)cc1 [asulam]	< 10	–	–
COC(=O)c1ccccc1CS(=O)(=O)NC(=O)Nc1nc(OC)cc(OC)n1 [bensulfuron-methyl]	10	exhibits metabolic reactivity	–
CC(C)N1C(=O)c2ccccc2NS1(=O)=O [bentazone]	< 5	exhibits metabolic reactivity	–
O=C1CCCC(=O)C1C(=O)c1nc2c(Cl)cccc2n(-c2ccc(O)cc2)c1=O [demethylated product of fenquinotrione]	–	–	does not exhibit herbicidal activity
O=C(Nc1ccc(F)cc1F)c1cccnc1Oc1cccc(C(F)(F)F)c1 [diflufenican]	2	–	–
CS(=O)(=O)NC(=O)c1cc(Oc2ccc(C(F)(F)F)cc2Cl)ccc1[N+](=O)[O-] [fomesafen]	3	–	–
CC(C)C1(C)N=C(c2nc3ccccc3cc2C(=O)O)NC1=O (centres unmarked) [imazaquin]	≤ 10	–	–
CNc1cnn(-c2cccc(C(F)(F)F)c2)c(=O)c1Cl [norflurazon]	2	–	–
CCC(CC)Nc1c([N+](=O)[O-])cc(C)c(C)c1[N+](=O)[O-] [pendimethalin]	< 100	–	–
COc1cnc(OC)n2nc(NS(=O)(=O)c3c(OCC(F)F)cccc3C(F)(F)F)nc12 [penoxsulam]	100	–	–
O=C(Nc1ccc(F)cc1)c1cccc(Oc2cccc(C(F)(F)F)c2)n1 [picolinafen]	2	–	–
CCOC(=O)COc1cc(-c2nn(C)c(OC(F)F)c2Cl)c(F)cc1Cl [pyraflufen-ethyl]	10	–	–
CO/N=C(/C)c1cccc(Oc2nc(OC)cc(OC)n2)c1C(=O)OC [pyriminobac-methyl]	–	exhibits metabolic reactivity	–
COCc1cccc(C(O)c2nc(OC)cc(OC)n2)c1NS(=O)(=O)C(F)F (centres unmarked) [pyrimisulfan]	100	exhibits metabolic reactivity	–
COc1cc(OC)nc(Sc2cccc(Cl)c2C(=O)O)n1 [pyrithiobac-sodium salt]	100	–	–
Cc1nn(-c2cc(NS(C)(=O)=O)c(Cl)cc2Cl)c(=O)n1C(F)F [sulfentrazone]	10	–	–
COC(=O)c1ccccc1S(=O)(=O)NC(=O)Nc1nc(C)cc(C)n1 [sulfometuron-methyl]	5	–	–
fluridone	2	–	–
oxadiargyl	2	–	–
